# According to patent US11103457B2, “Pharmaceutical compositions comprising safinamide” (Zambon S.P.A., priority 2017, dated 2021):
# Test: Sensory evaluation of the active ingredient safinamide (taste and irritation in the mouth)
# Format: in vivo
# Conditions: five minutes after rinsing with drinking water; 2 subjects
# Description: In order to verify the unpleasant taste and irritation sensation of the active pharmaceutical ingredient, safinamide methanesulphonate, a test was performed in vivo by using an amount of safinamide methanesulfonate equal to 100 mg of safinamide base. Sensory evaluation was carried out by recruiting 2 subjects, who were asked to put said amount in the mouth by avoiding swallowing the mass. At the end of the test, participants were asked to rinse the mouth with plenty of drinking water; five minutes later their tongue and palate resulted to be still sore.
structure (smiles),measurement,value
"C[C@H](NCc1ccc(OCc2cccc(F)c2)cc1)C(N)=O [safinamide methanesulfonate, (2S)-2-[[4-[(3-fluorophenyl)methoxy]phenyl]methylamino]propanamide]",tongue and palate after rinsing the mouth,still sore
